Test results published in ChEMBL document CHEMBL3137667, “[Drug-induced liver injury; fourteenth updated edition of the bibliographic database of liver injuries and related drugs]” (Gastroenterol Clin Biol, 2004).

Assays:
[1] = human
[2] = human; remark: listed apart in the source
[3] = Times to onset, minimal and maximal, observed in the indexed observations. [column 'DELAI' in source]; conditions: human
[4] = Highest frequency of acute liver toxicity observed during clinical trials, expressed as a percentage. [column '% AIGUE' in source]; conditions: human
[5] = human, serum
[6] = human; remark: listed apart in the source
[7] = human; remark: listed apart in the source
[8] = Highest frequency of moderate liver toxicity observed during clinical trials, expressed as a percentage. [column '% BIOL' in source]; conditions: human
[9] = human; remark: listed apart in the source
[10] = human, serum; remark: listed apart in the source
[11] = human, serum, 4383 h
[12] = human; remark: listed apart in the source
[13] = human; remark: listed apart in the source
[14] = human; remark: listed apart in the source
[15] = human; remark: listed apart in the source
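For Hepatotoxicity (association with vascular disease) in this document: count of indexed literature references reporting vascular liver injury in humans, e.g. peliosis hepatitis, hepatic veno-occlusive disease or Budd-Chiari syndrome.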
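For Hepatotoxicity (benign tumour) in this document: value is a count of indexed literature references citing a benign tumour confirmed by histopathology.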
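For Hepatotoxicity (choleostasis) in this document: human cholestatic liver injury, shown by histopathology or by peak ALT or AST elevation over alkaline phosphatase ratio below 2, value counts indexed literature reports.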
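For Hepatotoxicity (chronic liver disease) in this document: chronic liver injury confirmed by histopathology or persistently raised serum aminotransferase activity beyond 6 months, value given as the count of indexed literature references.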
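For Hepatotoxicity (cirrhosis) in this document: value is a count of indexed literature references reporting cirrhosis confirmed by histopathology.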
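For Hepatotoxicity (cytolytic) in this document: human cytolytic liver injury, shown by histopathology or by a ratio above 5 of peak ALT or AST elevation to alkaline phosphatase elevation, value counts indexed references.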
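For Hepatotoxicity (granulomatous hepatitis) in this document: value is a count of indexed literature references reporting granulomatous liver disease confirmed by histopathology.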
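For Hepatotoxicity (malignant tumour) in this document: malignant tumour confirmed by histopathology, value gives the count of indexed literature references reporting it.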
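For Hepatotoxicity (severe hepatitis) in this document: human clinical data: severe hepatitis, meaning potentially life-threatening liver failure or clinically observed cases, the value counts how many indexed literature references report it.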
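For Hepatotoxicity (steatosis) in this document: steatosis confirmed by histopathology, value is the count of indexed references.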

| Compound | Hepatotoxicity (benign tumour) [1] | Hepatotoxicity (malignant tumour) [2] | Hepatotoxicity (time to onset) [3] | Hepatotoxicity (acute) [4] | Hepatotoxicity (acute) [5] | Hepatotoxicity (steatosis) [6] | Hepatotoxicity (association with vascular disease) [7] | Hepatotoxicity (moderate) [8] | Hepatotoxicity (cirrhosis) [9] | Hepatotoxicity (moderate) [10] | Hepatotoxicity (chronic liver disease) [11] | Hepatotoxicity (severe hepatitis) [12] | Hepatotoxicity (choleostasis) [13] | Hepatotoxicity (cytolytic) [14] | Hepatotoxicity (granulomatous hepatitis) [15] | further results |
| --- | --- | --- | --- | --- | --- | --- | --- | --- | --- | --- | --- | --- | --- | --- | --- | --- |
| O=C1CC2(CCCC2)CC(=O)N1CCCCN1CCN(c2ncccn2)CC1 [BUSPIRONE] | 0 | 0 | 26 days | 0% | 1 | 0 | 0 | 5.3% | 0 | 2 | 0 | 0 | 1 | 1 | 0 | – |
| C=CCOc1ccccc1OCC(O)CNC(C)C (stereo not given) [OXPRENOLOL] | 0 | 0 | 1 day - 15 days | – | 1 | 0 | 0 | – | 0 | 1 | 0 | – | – | – | – | Hepatotoxicity (acute) ([4]; Liver): 0%; Hepatotoxicity (moderate) ([8]; Liver): 0%; Hepatotoxicity (severe hepatitis) ([12]; Liver): 0; Hepatotoxicity (choleostasis) ([13]; Liver): 0; Hepatotoxicity (cytolytic) ([14]; Liver): 1; Hepatotoxicity (granulomatous hepatitis) ([15]; Liver): 0 |
| CC(=O)CCCCn1c(=O)c2c(ncn2C)n(C)c1=O [PENTOXIFYLLINE] | 0 | 0 | 3 weeks | 0% | 2 | 0 | 0 | 0% | 0 | 0 | 0 | 0 | 2 | 0 | 0 | – |
| CCOC(=O)[C@H](CCc1ccccc1)N[C@H]1CCCN2CCC[C@@H](C(=O)O)N2C1=O [CILAZAPRIL] | 0 | 0 | 2 months | 0% | 0 | 0 | 0 | 1.2% | 0 | 1 | 0 | 0 | 0 | 0 | 0 | – |
| CCN[C@@H](C)Cc1cccc(C(F)(F)F)c1 [DEXFENFLURAMINE] | 0 | 0 | 4 years | 0% | 0 | 0 | 0 | 0% | 1 | 0 | 0 | 0 | 0 | 0 | 0 | – |
| [3-(8,8-Diethyl-2-aza-8-germa-spiro[4.5]dec-2-yl)-propyl]-dimethyl-amine | 0 | 0 | 8 weeks | 6.5% | 2 | 0 | 0 | 27% | 0 | 6 | 0 | 0 | 0 | 0 | 0 | – |
| CCOC(=O)Nc1ccc2c(c1)N(C(=O)CCN1CCOCC1)c1ccccc1S2 [MORICIZINE] | 0 | 0 | 6 days | 0% | 0 | 0 | 0 | 1.2% | 0 | 4 | 0 | 0 | 0 | 0 | 0 | – |
| Cc1cn([C@H]2C[C@H](F)[C@@H](CO)O2)c(=O)[nH]c1=O [ALOVUDINE] | 0 | 0 | < 3 months | 3.3% | 1 | 0 | 0 | 0% | 0 | 0 | 0 | 1 | 0 | 0 | 0 | – |
| C[C@H]1[C@H](NC(=O)/C(=N\OC(C)(C)C(=O)O)c2csc(N)n2)C(=O)N1S(=O)(=O)O [AZTREONAM] | 0 | 0 | 4 days | – | 1 | 0 | 0 | – | 0 | 104 | 0 | – | 0 | 1 | 0 | Hepatotoxicity (acute) ([4]; Liver): 0%; Hepatotoxicity (moderate) ([8]; Liver): 60%; Hepatotoxicity (severe hepatitis) ([12]; Liver): 0 |
| NC(=O)OCC(COC(N)=O)c1ccccc1 [FELBAMATE] | 0 | 0 | 13 days - 6 months | 0% | 4 | 0 | 0 | 7.1% | 0 | 4 | 0 | 3 | 0 | 2 | 0 | – |
| CN(C)[C@@H]1C(O)=C(C(=O)NCNCCCC[C@H](N)C(=O)O)C(=O)[C@@]2(O)C(O)=C3C(=O)c4c(O)cccc4[C@@](C)(O)[C@H]3C[C@@H]12 [LYMECYCLINE] | 0 | 0 | 2.4 years | 0% | 1 | 0 | 0 | 0% | 0 | 0 | 0 | 0 | 0 | 1 | 0 | – |
| CC1(C)O[C@@H]2[C@@H](CO[C@@]3(COS(N)(=O)=O)OC(C)(C)O[C@@H]23)O1 [TOPIRAMATE] | 0 | 0 | 2 months - 4 months | 0% | 2 | 0 | 0 | 23% | 0 | 1 | 0 | 1 | 0 | 2 | 0 | – |
| O=P(O)(O)C(Sc1ccc(Cl)cc1)P(=O)(O)O [TILUDRONIC ACID] | 0 | 0 | 8 weeks | 0% | 0 | 0 | 0 | 0.9% | 0 | 1 | 0 | 0 | 0 | 0 | 0 | – |
| NN [HYDRAZINE] | 0 | 0 | 3.5 months | 0% | 1 | 0 | 0 | 0% | 0 | 0 | 0 | 1 | 0 | 1 | 0 | – |
| CCN(CC)CCn1c(-c2ccccc2)noc1=N [IMOLAMINE] | 0 | 0 | 2 months | 0% | 0 | 0 | 0 | 0% | 0 | 0 | 1 | 0 | 0 | 0 | 0 | – |
